Source: ChEMBL document CHEMBL4196009, “Novel vitexin-inspired scaffold against leukemia” (Eur J Med Chem, 2018)

Tests used:
BJ = experiment: Antiproliferative activity against human BJ cells after 72 hrs by CelTiter-Glo assay; assay type: cell-based
SUP-B15 = experiment: Antiproliferative activity against human SUP-B15 cells after 72 hrs by CelTiter-Glo assay; assay type: functional, cell-based; details: SUP-B15, 72 h
KOPN-8 = experiment: Antiproliferative activity against human KOPN8 cells after 72 hrs by CelTiter-Glo assay; assay type: functional, cell-based; details: KOPN-8, 72 h
HepG2 = experiment: Antiproliferative activity against human HepG2 cells after 72 hrs by CelTiter-Glo assay; assay type: functional, cell-based; details: HepG2, 72 h

| SMILES | EC50 (BJ) [µM] | EC50 (SUP-B15) [µM] | EC50 (KOPN-8) [µM] | EC50 (HepG2) [µM] |
| --- | --- | --- | --- | --- |
| COc1ccc(-c2c(Cl)c(=O)c3c(OC)cc(OC)cc3n2S(=O)(=O)c2ccc(OC)cc2)cc1 | 90 | 17.9 | 19.1 | – |
| COc1cc(OC)c2c(=O)cc(C(=O)Nc3ccc(N4CCOCC4)cc3)[nH]c2c1 | > 36.8 | > 36.8 | > 36.8 | > 36.8 |
| O=c1cc(-c2ccccc2)oc2cc(O)c(O)c(O)c12 [BAICALEIN] | > 86.2 | 103 | 16 | 60 |
| COc1ccc(-c2cc(=O)c3c(OC)cc(OC)cc3n2S(=O)(=O)c2ccc(OC)cc2)cc1 | > 82.8 | > 82.8 | > 82.8 | > 82.8 |
| COc1ccc(-c2cc(=O)c3c(OC)cc(OC)cc3n2S(=O)(=O)c2ccc(F)cc2)cc1 | > 65.5 | > 65.5 | > 65.5 | > 65.5 |
| COc1ccc(-c2cc(=O)c3c(OC)cc(OC)cc3n2S(=O)(=O)c2cc(F)c(F)c(F)c2)cc1 | > 65.5 | > 65.5 | > 65.5 | > 65.5 |
| COc1ccc(-c2cc(=O)c3c(OC)cc(OC)cc3n2S(=O)(=O)c2ccc(Cl)cc2)cc1 | > 34.5 | > 34.5 | > 34.5 | > 34.5 |
| COc1ccc(-c2cc(=O)c3c(OC)cc(OC)cc3n2S(=O)(=O)c2ccc([N+](=O)[O-])cc2)cc1 | > 29.3 | 17.1 | 17.3 | > 29.3 |
| COc1cc(OC)c2c(=O)cc(C(=O)Nc3ccc(S(=O)(=O)c4ccccc4)cc3)[nH]c2c1 | > 70.7 | > 70.7 | > 70.7 | > 70.7 |
| COc1ccc(-c2cc(=O)c3c(OC)cc(OC)cc3n2S(=O)(=O)c2ccc(Br)s2)cc1 | > 48.3 | > 48.3 | > 48.3 | > 48.3 |
| COc1ccc(-c2cc(=O)c3c(OC)cc(OC)cc3n2S(=O)(=O)c2cc(Cl)cc(Cl)c2O)cc1 | > 37.9 | > 37.9 | > 37.9 | > 37.9 |
| COc1ccc(-c2cc(=O)c3c(OC)cc(OC)cc3n2S(=O)(=O)c2ccc(C)cc2)cc1 | > 44.8 | > 44.8 | > 44.8 | > 44.8 |
| COc1ccc(-c2cc(=O)c3c(OC)cc(OC)cc3n2S(=O)(=O)c2cccc([N+](=O)[O-])c2)cc1 | > 39.7 | > 39.7 | > 39.7 | > 39.7 |
| COc1ccc(-c2cc(=O)c3c(OC)cc(OC)cc3n2S(=O)(=O)c2ccc(C)c([N+](=O)[O-])c2)cc1 | > 51.7 | > 51.7 | > 51.7 | > 51.7 |
| COc1ccc(-c2cc(=O)c3c(OC)cc(OC)cc3n2S(=O)(=O)c2ccc(Br)cc2)cc1 | > 86.2 | 63.8 | > 86.2 | 16.3 |
| COc1ccc(-c2cc(=O)c3c(OC)cc(OC)cc3n2S(=O)(=O)c2c(C(C)C)cc(C(C)C)cc2C(C)C)cc1 | > 341 | 43.3 | > 341 | > 341 |
| COc1ccc(-c2cc(=O)c3c(OC)cc(OC)cc3n2S(=O)(=O)c2cccc(Br)c2)cc1 | > 58.6 | > 58.6 | > 58.6 | > 58.6 |
| COc1ccc(-c2cc(=O)c3c(OC)cc(OC)cc3n2S(=O)(=O)Cc2ccccc2)cc1 | > 34.5 | > 34.5 | > 34.5 | > 34.5 |
| COc1ccc(-c2[nH]c3cc(OC)cc(OC)c3c(=O)c2I)cc1 | > 86.2 | > 86.2 | 49.4 | > 86.2 |
| COc1ccc(-c2cc(=O)c3c(OC)cc(OC)cc3n2S(=O)(=O)c2ccc(C=O)cc2)cc1 | > 34.5 | > 34.5 | > 34.5 | > 34.5 |
| COc1cc(OC)c2c(=O)cc(C(=O)Nc3ccccc3S(C)(=O)=O)[nH]c2c1 | > 39.7 | > 39.7 | > 39.7 | > 39.7 |
